Test results reported in PubChem BioAssay (NCI).
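Growth conditions: 96-well plates. Treatment: test compound, 48 hours, 5 concentrations. Analysis: linear interpolation between bracketing concentrations; unreached endpoints set to highest concentration. At the TGI there is no net growth.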

Assays:
Assay in all cases: NCI-60 cell line screen, 48 h
[1] = tested on: SR leukemia
[2] = tested on: HL-60(TB) leukemia
[3] = tested on: K-562 leukemia
[4] = tested on: SF-539 CNS
[5] = tested on: HCC-2998 colon
[6] = tested on: SF-295 CNS
[7] = tested on: MDA-N
[8] = tested on: OVCAR-8 ovarian
[9] = tested on: KM12 colon
[10] = tested on: LOX IMVI melanoma

What does the source list for `OCC1CCCCN1Cc1nc2ccc(Cl)cc2[nH]1` (stereo not given)?
TGI [1]: > 100 µM; TGI [2]: > 100 µM; TGI [3]: > 100 µM; TGI [4]: > 100 µM; TGI [5]: > 100 µM; TGI [6]: > 100 µM; TGI [7]: > 100 µM; TGI [8]: > 100 µM; TGI [9]: > 100 µM

`COC(=O)[C@H]1ON2O[C@@H](O[C@H]3CCCC[C@@H]3C(C)(C)c3ccccc3)C[C@@H]3CC[C@H]1[C@@]32C` was tested. Which TGI [1] did it give?
The TGI was > 100 µM.

And the TGI [2]?
Its TGI is > 100 µM.

And the TGI [3]?
The TGI was > 100 µM.

What about the TGI [5] of the same compound?
The TGI was > 100 µM.

What about the TGI [6] of the same compound?
The TGI was > 100 µM.

And the TGI [10]?
The TGI was > 100 µM.

What about the TGI [7] of the same compound?
Its TGI is > 100 µM.

And the TGI [8]?
The TGI was > 100 µM.

And the TGI [9]?
Its TGI is > 100 µM.

For `Cc1cc2nc3c(C(O)CO)nn(-c4ccccc4)c3nc2cc1C` (stereo not given), which TGI [1] is on record?
Its TGI is 33.4 µM.

What about the TGI [2] of the same compound?
Its TGI is 45.8 µM.

What about the TGI [3] of the same compound?
Its TGI is 59.3 µM.

What about the TGI [4] of the same compound?
Its TGI is 50.2 µM.

What about the TGI [6] of the same compound?
The TGI was 35.7 µM.

And the TGI [10]?
The TGI was 66.3 µM.

What about the TGI [7] of the same compound?
The TGI was 40.6 µM.

And the TGI [8]?
Its TGI is 76.8 µM.

And the TGI [9]?
The TGI was 33.4 µM.

How did the TGI [1] turn out when `CNC=O` was run?
The TGI was > 10000 µM.

What about the TGI [2] of the same compound?
The TGI was > 10000 µM.

And the TGI [3]?
Its TGI is > 10000 µM.

What about the TGI [4] of the same compound?
Its TGI is > 10000 µM.

And the TGI [5]?
Its TGI is < 3980 µM.

What about the TGI [6] of the same compound?
Its TGI is > 10000 µM.

And the TGI [10]?
The TGI was > 10000 µM.

And the TGI [7]?
Its TGI is > 10000 µM.

And the TGI [8]?
The TGI was > 10000 µM.

What about the TGI [9] of the same compound?
Its TGI is > 10000 µM.

Which results are given for `O/N=C1\CC2(N3CCOCC3)CCC1(Cc1ccccc1)CC2`?
TGI [1]: > 100 µM; TGI [2]: > 100 µM; TGI [3]: > 100 µM; TGI [4]: 58.3 µM; TGI [5]: > 100 µM; TGI [6]: 61.2 µM; TGI [10]: > 100 µM; TGI [7]: > 100 µM; TGI [8]: 48.1 µM; TGI [9]: > 100 µM

`C/C=C/[C@@H]1O[C@H](CC#C[Si](C)(C)C)[C@@]2(C=O)C(C)=CC[C@H](C(C)C)[C@@H]12` was tested. Which TGI [1] did it give?
Its TGI is 56.3 µM.

And the TGI [2]?
Its TGI is 19.2 µM.

And the TGI [3]?
Its TGI is > 100 µM.

What about the TGI [4] of the same compound?
The TGI was 49.7 µM.

And the TGI [5]?
The TGI was 36.5 µM.

What about the TGI [6] of the same compound?
The TGI was 67.3 µM.

And the TGI [10]?
Its TGI is 18.2 µM.

And the TGI [7]?
Its TGI is 43.9 µM.

And the TGI [8]?
The TGI was > 100 µM.

What about the TGI [9] of the same compound?
Its TGI is 40.8 µM.

With `COc1ccc2c(-c3ccc(O)cc3)c(Oc3ccccc3)c(=O)oc2c1` as the compound, how does the TGI [1] read?
The TGI was > 23.4 µM.

What about the TGI [2] of the same compound?
Its TGI is > 100 µM.

What about the TGI [3] of the same compound?
Its TGI is > 100 µM.

And the TGI [4]?
Its TGI is > 100 µM.

And the TGI [5]?
The TGI was > 69.3 µM.

What about the TGI [6] of the same compound?
The TGI was > 100 µM.

What about the TGI [10] of the same compound?
The TGI was > 100 µM.

What about the TGI [7] of the same compound?
Its TGI is > 100 µM.

What about the TGI [8] of the same compound?
Its TGI is > 100 µM.

What about the TGI [9] of the same compound?
Its TGI is > 100 µM.

For `C=CCC1(O)c2cccc(O)c2C(=O)c2cccc(O)c21` (stereo not given), which TGI [1] is on record?
The TGI was 36.3 µM.

And the TGI [2]?
The TGI was 34.2 µM.

What about the TGI [3] of the same compound?
The TGI was > 100 µM.

And the TGI [4]?
Its TGI is > 100 µM.

And the TGI [5]?
The TGI was 30.3 µM.

What about the TGI [6] of the same compound?
Its TGI is 38.3 µM.

And the TGI [10]?
Its TGI is 30.9 µM.

What about the TGI [7] of the same compound?
The TGI was 31.1 µM.

What about the TGI [8] of the same compound?
Its TGI is > 100 µM.

And the TGI [9]?
Its TGI is 85 µM.

With `CCOC(=O)c1c(NC(=O)c2ccccc2)sc2c1CCC2` as the compound, how does the TGI [1] read?
Its TGI is > 100 µM.

And the TGI [2]?
The TGI was > 100 µM.

What about the TGI [3] of the same compound?
The TGI was > 100 µM.

What about the TGI [4] of the same compound?
The TGI was > 100 µM.

What about the TGI [6] of the same compound?
The TGI was > 100 µM.

And the TGI [7]?
The TGI was > 100 µM.

And the TGI [8]?
Its TGI is > 100 µM.

What about the TGI [9] of the same compound?
Its TGI is > 100 µM.

What does the source list for `c1ccc2c(Cc3c[nH]c4ccccc34)c[nH]c2c1`?
TGI [1]: 34.2 µM; TGI [2]: 33.4 µM; TGI [3]: > 100 µM; TGI [6]: 43.8 µM; TGI [10]: 49.8 µM; TGI [7]: 41.5 µM; TGI [8]: 42.8 µM; TGI [9]: 40.5 µM

How did the TGI [1] turn out when `O=C(c1ccco1)N1CCN(C(=O)c2ccco2)C1=S` was run?
The TGI was 12.1 µM.

And the TGI [2]?
Its TGI is 7.16 µM.

What about the TGI [3] of the same compound?
The TGI was 16.5 µM.

And the TGI [4]?
The TGI was 11.2 µM.

What about the TGI [5] of the same compound?
The TGI was 25.7 µM.

What about the TGI [6] of the same compound?
Its TGI is 35.8 µM.

And the TGI [10]?
The TGI was 14.9 µM.

And the TGI [7]?
Its TGI is 22.6 µM.

What about the TGI [8] of the same compound?
The TGI was 62.5 µM.

What about the TGI [9] of the same compound?
Its TGI is 15 µM.

`CO/N=C1/C(n2[nH]c(=O)n(-c3ccccc3)c2=O)C2C=CC1n1c(=O)n(-c3ccccc3)c(=O)n12` (stereo not given) was tested. Which TGI [1] did it give?
Its TGI is > 100 µM.

What about the TGI [2] of the same compound?
The TGI was > 100 µM.

What about the TGI [3] of the same compound?
The TGI was > 100 µM.

What about the TGI [4] of the same compound?
The TGI was > 100 µM.

And the TGI [5]?
Its TGI is > 100 µM.

And the TGI [10]?
The TGI was > 100 µM.

What about the TGI [7] of the same compound?
Its TGI is > 100 µM.

And the TGI [8]?
The TGI was > 100 µM.

What about the TGI [9] of the same compound?
The TGI was > 100 µM.

`O=[N+]([O-])/C(C(Cl)=C(Cl)Cl)=C(/Sc1ccccc1)N1CCOCC1` was tested. Which TGI [1] did it give?
The TGI was 5.62 µM.

And the TGI [2]?
The TGI was 4.51 µM.

And the TGI [3]?
The TGI was 3.89 µM.

And the TGI [4]?
Its TGI is 25.5 µM.

And the TGI [5]?
The TGI was 29.9 µM.

What about the TGI [6] of the same compound?
Its TGI is 36.4 µM.

What about the TGI [10] of the same compound?
The TGI was 3.04 µM.

And the TGI [7]?
Its TGI is 14.6 µM.

What about the TGI [8] of the same compound?
Its TGI is 4.06 µM.

What about the TGI [9] of the same compound?
Its TGI is 32.7 µM.

Which results are given for `CC(=O)NC1CCC(NC(=O)OC(C)(C)C)C(NC(=O)OC(C)(C)C)C1` (stereo not given)?
TGI [1]: > 100 µM; TGI [2]: > 100 µM; TGI [3]: > 100 µM; TGI [4]: > 100 µM; TGI [5]: > 100 µM; TGI [6]: > 100 µM; TGI [10]: > 100 µM; TGI [7]: > 100 µM; TGI [8]: > 100 µM; TGI [9]: > 100 µM

Which results are given for `O=C(CN=C(CN(c1ccccc1)c1ccccc1)Oc1c([N+](=O)[O-])cc([N+](=O)[O-])cc1[N+](=O)[O-])N1CCNCC1`?
TGI [1]: > 100 µM; TGI [2]: > 100 µM; TGI [3]: > 100 µM; TGI [4]: > 100 µM; TGI [5]: > 100 µM; TGI [6]: > 100 µM; TGI [7]: > 100 µM; TGI [8]: > 100 µM; TGI [9]: > 100 µM

With `OCCCN(CCc1ccc(Cl)c(Cl)c1)CCN1CCCC1` as the compound, how does the TGI [1] read?
Its TGI is > 100 µM.

What about the TGI [2] of the same compound?
Its TGI is > 100 µM.

And the TGI [3]?
Its TGI is 46.2 µM.

And the TGI [5]?
The TGI was 32.9 µM.

What about the TGI [6] of the same compound?
The TGI was > 100 µM.

What about the TGI [10] of the same compound?
Its TGI is > 100 µM.

And the TGI [7]?
The TGI was 42.7 µM.

What about the TGI [8] of the same compound?
The TGI was > 100 µM.

And the TGI [9]?
Its TGI is > 100 µM.

Which TGI [1] does the source give for `C=CC1(CBr)CCC(C(C)(C)Br)O1` (stereo not given) here?
Its TGI is 8.58 µM.

What about the TGI [2] of the same compound?
Its TGI is 0.893 µM.

And the TGI [3]?
Its TGI is > 25.9 µM.

And the TGI [4]?
Its TGI is 30.8 µM.

And the TGI [5]?
Its TGI is 30.5 µM.

And the TGI [6]?
The TGI was 24.8 µM.

And the TGI [10]?
Its TGI is 4.34 µM.

And the TGI [7]?
The TGI was 22.7 µM.

What about the TGI [8] of the same compound?
The TGI was 9.45 µM.

And the TGI [9]?
Its TGI is 26.1 µM.
